In US20040127403A1, “Methods for treating and preventing Gram-positive bacteremias” (priority 2002, published 2004):
“And” between values parts separate entries of the source, which are not always exact repeats. Identical values can stand only once.

Experiments:
Assay in all cases: MIC, NCCLS broth microdilution
Format in all cases: cell-based
[1] = test system: E. faecalis ATCC51299; settings: E. faecalis ATCC51299
Outline: (§1)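 MIC values come from NCCLS broth microdilution run in cation-adjusted Mueller-Hinton broth as well as trypticase soy broth. Ramoplanin-containing media included 0.02% BSA against plastic binding.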

[2] = test system: S. aureus ATCC43300 MRSA
Outline: as §1

[3] = test system: E. faecium A6345 Line-R; settings: for MIC: E. faecium A6345 Line-R
Outline: as §1

[4] = test system: E. faecium A5959 Line-R; settings: Table 6, 2nd
Outline: as §1

[5] = test system: E. faecium A-5960 Line-R; settings: Table 6, 2nd
Outline: as §1

[6] = test system: E. faecalis ATCC29212; settings: E. faecalis ATCC29212
Outline: as §1

[7] = test system: E. faecium A6343 Line-R
Outline: as §1

[8] = test system: S. aureus ATCC27659 MSSA
Outline: as §1

[9] = test system: S. aureus ATCC700699 MRSA/VISA; settings: S. aureus ATCC700699 MRSA/VISA
Outline: as §1

[10] = test system: E. faecium UA392; settings: E. faecium UA392
Outline: as §1

[11] = test system: S. epidermidis ATCC14990; settings: S. epidermidis ATCC14990
Outline: as §1

[12] = test system: E. faecium UA210; settings: E. faecium UA210
Outline: as §1

[13] = test system: E. faecium A6349 Line-R
Outline: as §1

[14] = test system: E. faecalis A7789 Line-R; settings: Table 6, 1st
Outline: as §1

[15] = test system: E. faecium A2735 Syn-R
Outline: as §1

[16] = test system: E. faecium 1836; settings: E. faecium 1836
Outline: as §1

[17] = test system: S. epidermidis ATCC12228; settings: S. epidermidis ATCC12228
Outline: as §1

[18] = test system: S. epidermidis ATCC35983; settings: S. epidermidis ATCC35983
Outline: as §1

[19] = test system: S. aureus ATCC12600 MRSA
Outline: as §1

[20] = test system: E. gallinarum UA604
Outline: as §1

[21] = test system: S. epidermidis ATCC35984; settings: S. epidermidis ATCC35984
[22] = test system: S. epidermidis ATCC18972; settings: S. epidermidis ATCC18972

For Ramoplanin, the MIC ([1]; CAMHB) was 0.5, 0.5 μg/ml, the MIC ([1]; TSB) was 0.5, 0.5 μg/ml and the MIC ([1]; Table 6, 1st) was 0.25 µg/mL. For the same substance, the MIC ([1]; Table 6, 2nd) was 0.5 µg/mL, the MIC ([2]; S. aureus ATCC43300 MRSA/VISA, Table 6, 1st) was 2 µg/mL and the MIC ([2]; S. aureus ATCC43300 MRSA/VISA, Table 6, 2nd) was 0.25 µg/mL. For the same substance, the MIC ([2]; S. aureus ATCC43300 MRSA, CAMHB) was 1, 1 μg/ml, the MIC ([2]; S. aureus ATCC43300 MRSA, TSB) was 0.5, 0.5 μg/ml and the “reference MIC for strains used for killing curve” value ([3]; E. faecium A6345 Line-R. as printed, second row of Table 3) was 0.25 µg/mL. For the same substance, the “reference MIC for strains used for killing curve” value ([3]; E. faecium A6345 Line-R., first row of Table 3) was 0.25 µg/mL, the MIC ([3]; CAMHB) was 0.125, 0.125 μg/ml and the MIC ([3]; TSB) was 0.25, 0.25 μg/ml. It also gave an MIC ([3]; Table 6, 1st) of 0.125 µg/mL, an MIC ([3]; Table 6, 2nd) of 0.25 µg/mL and an MIC [4] of 0.25 µg/mL. The MIC [5] was 0.25 µg/mL, the MIC ([6]; CAMHB) was 0.5, 0.5 μg/ml and the MIC ([6]; TSB) was 0.5, 0.5 μg/ml. For the same substance, the MIC ([6]; Table 6, 1st) was 0.25 µg/mL, the MIC ([6]; Table 6, 2nd) was 0.5 µg/mL and 0.25 µg/mL and the MIC ([7]; CAMHB) was 0.25, 0.25 μg/ml. The MIC ([7]; TSB) was 0.25, 0.25 μg/ml, the MIC ([7]; Table 6, 1st) was 0.125 µg/mL and the MIC ([7]; Table 6, 2nd) was 0.25 µg/mL. The MIC ([8]; CAMHB) was 0.25, 0.25 μg/ml, the MIC ([8]; TSB) was 0.25, 0.25 μg/ml and the MIC ([8]; Table 6, 1st) was 1 µg/mL. For the same substance, the MIC ([8]; Table 6, 2nd) was 0.25 µg/mL, the MIC ([9]; CAMHB) was 0.5 µg/mL and 0.25 µg/mL and the MIC ([9]; TSB) was 0.25, 0.25 μg/ml. The MIC ([9]; Table 6, 1st) was 1 µg/mL, the MIC ([9]; Table 6, 2nd) was 0.5 µg/mL and the MIC ([10]; CAMHB) was 0.25, 0.25 μg/ml. The MIC ([10]; TSB) was 0.25, 0.25 μg/ml, the MIC ([10]; Table 6, 1st) was 0.125 µg/mL and the MIC ([10]; Table 6, 2nd) was 0.25 µg/mL. The MIC ([11]; CAMHB) was 0.5, 0.5 μg/ml, the MIC ([11]; TSB) was 0.5, 0.5 μg/ml and the MIC ([11]; Table 6, 1st) was 0.5 µg/mL. The MIC ([11]; Table 6, 2nd) was 0.25 µg/mL, the MIC ([12]; CAMHB) was 0.125, 0.125 μg/ml and the MIC ([12]; TSB) was 0.125, 0.125 μg/ml. The MIC ([12]; Table 6, 1st) was 0.06 µg/mL, the MIC ([12]; Table 6, 2nd) was 0.125 µg/mL and the MIC ([13]; Table 6, 1st) was 0.125 µg/mL. For the same substance, the MIC ([13]; Table 6, 2nd) was 0.25 µg/mL, the MIC [14] was 0.06 µg/mL and the MIC ([15]; CAMHB) was 0.25, 0.25 μg/ml. For the same substance, the MIC ([15]; TSB) was 0.5, 0.5 μg/ml, the MIC ([15]; Table 6, 1st) was 0.25 µg/mL and the MIC ([15]; Table 6, 2nd) was 0.25 µg/mL. For the same substance, the MIC ([16]; CAMHB) was 0.5, 0.5 μg/ml, the MIC ([16]; TSB) was 0.5, 0.5 μg/ml and the MIC ([16]; Table 6, 1st) was 0.25 µg/mL. For the same substance, the MIC ([16]; Table 6, 2nd) was 0.5 µg/mL, the MIC ([17]; CAMHB) was 0.5, 0.5 μg/ml and the MIC ([17]; TSB) was 1, 1 μg/ml. The MIC ([17]; Table 6, 1st) was 1 µg/mL, the MIC ([17]; Table 6, 2nd) was 0.25 µg/mL and the MIC ([18]; CAMHB) was 0.5, 0.5 μg/ml. The MIC ([18]; TSB) was 2 µg/mL and 1 µg/mL, the MIC ([18]; Table 6, 2nd) was 0.5 µg/mL and the MIC ([19]; CAMHB) was 0.5, 0.5 μg/ml. For the same substance, the MIC ([19]; TSB) was 0.5, 0.5 μg/ml, the MIC ([19]; Table 6, 1st) was 1 µg/mL and the MIC ([19]; Table 6, 2nd) was 0.5 µg/mL. The MIC ([20]; CAMHB) was 0.125, 0.125 μg/ml, the MIC ([20]; TSB) was 0.25, 0.25 μg/ml and the MIC ([20]; Table 6, 1st) was 0.06 µg/mL. For the same substance, the MIC ([20]; Table 6, 2nd) was 0.125 µg/mL, the MIC ([21]; CAMHB) was 0.5, 0.5 μg/ml and the MIC ([21]; TSB) was 0.5, 0.5 μg/ml. The MIC ([21]; Table 6, 1st) was 1 µg/mL, the MIC ([21]; Table 6, 2nd) was 0.25 µg/mL and the MIC ([22]; CAMHB) was 0.5, 0.5 μg/ml. The MIC ([22]; TSB) was 1, 1 μg/ml, the MIC ([22]; Table 6, 1st) was 1 µg/mL and the MIC ([22]; Table 6, 2nd) was 0.25 µg/mL.
